Literature values, collected in patent publication US20120129178A1, “GENOMIC POLYMORPHISM FOR PREDICTING THERAPEUTIC RESPONSE” (University of Southern California, priority 1999, published 2012).
Like-named read-outs stand apart in the source and are kept apart here.

What was measured:
[1] = test system: patients with gastric cancer; settings: gastric cancer patients treated with 5-Fu
[2] = test system: patients with disseminated colon cancer; settings: 46 patients with disseminated colon cancer; TS mRNA levels higher than 4.1

Question: For `O=c1[nH]cc(F)c(=O)[nH]1` [5-FU, 5-Fluorouracil], which median survival ([1]; TS mRNA levels >4.6) is on record?
Answer: Its median survival is 6 months.

Question: What about the median survival ([1]; TS mRNA levels of 54.6 (so in the source)) of the same molecule?
Answer: Its median survival is ≥ 43 months.

Question: And the “response to 5-FU based treatment” value [2]?
Answer: The value was “No patient with TS mRNA levels higher than 4.1 responded to treatment”.
